ChEMBL document CHEMBL5604063, “ASAP - DENV-2 NS2B-NS3 protease fluorescence dose response” (2024)
Where “and” joins values, the source holds several entries; their conditions need not be identical. Identical values can stand only once.

Experiments:
Genome polyprotein [1] = molecular target: T1, Genome polyprotein (dengue virus type 2, UniProt P29990); assay type: functional, Thailand/16681/1984
Genome polyprotein [2] = molecular target: T1, Genome polyprotein; assay type: functional, Thailand/16681/1984; remark: listed apart in the source

T1 sequence (P29990 1346-1475 limits assumed): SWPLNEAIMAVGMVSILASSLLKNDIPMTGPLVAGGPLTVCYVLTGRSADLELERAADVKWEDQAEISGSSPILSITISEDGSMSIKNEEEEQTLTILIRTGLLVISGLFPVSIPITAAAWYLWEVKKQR
T1 sequence (P29990 1476-2093 limits assumed): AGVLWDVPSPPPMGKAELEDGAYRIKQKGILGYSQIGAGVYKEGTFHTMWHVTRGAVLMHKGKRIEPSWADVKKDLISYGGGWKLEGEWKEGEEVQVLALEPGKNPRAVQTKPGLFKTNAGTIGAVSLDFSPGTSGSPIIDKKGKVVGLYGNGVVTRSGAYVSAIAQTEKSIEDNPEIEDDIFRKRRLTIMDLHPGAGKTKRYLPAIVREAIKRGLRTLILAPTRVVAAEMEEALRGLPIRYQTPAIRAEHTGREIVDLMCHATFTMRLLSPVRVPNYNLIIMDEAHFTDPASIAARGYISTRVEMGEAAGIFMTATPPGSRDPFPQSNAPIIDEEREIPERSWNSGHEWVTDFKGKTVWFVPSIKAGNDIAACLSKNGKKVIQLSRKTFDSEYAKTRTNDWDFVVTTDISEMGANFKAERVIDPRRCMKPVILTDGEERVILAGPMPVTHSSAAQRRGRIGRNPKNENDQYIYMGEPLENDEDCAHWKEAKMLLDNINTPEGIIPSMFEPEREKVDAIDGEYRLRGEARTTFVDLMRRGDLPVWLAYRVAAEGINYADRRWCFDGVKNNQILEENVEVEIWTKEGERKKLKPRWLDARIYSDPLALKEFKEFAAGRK

Structure (SMILES) | IC50 (Genome polyprotein [1]) | IC50 (Genome polyprotein [2])
O=C(Nc1cc(Cl)cc([C@H](C#CCO)Nc2cccc(-c3nn[nH]n3)c2)c1)OCc1ccccc1 | 13.6 µM and 12.9 µM | 7.98 µM and 7.07 µM
Cc1c(C(=O)Nc2cc(CCCN)ccc2F)cc(C2CC2)n1C | > 99.5 µM | > 100 µM
NCc1cccc(N[C@H](C#CCO)c2cc(Cl)cc(NC(=O)OCc3ccccc3)c2)c1 | 93.8 µM | > 100 µM
Clc1cc(/C=C/c2cccc(-c3nn[nH]n3)c2)c2cn[nH]c2c1 | > 99.5 µM | > 100 µM
COc1c(C(=O)N(C)C)cc(Cl)cc1S(=O)(=O)Nc1cccc(-c2nnn[nH]2)c1 | > 99.5 µM | > 100 µM
N#C[C@H](Nc1cccc(-c2nn[nH]n2)c1)c1cc(Cl)cc(NC(=O)OCc2ccccc2)c1 | 10.5 µM and 10.4 µM and 13.7 µM and 9.79 µM | 8.74 µM and 6.62 µM and 11.4 µM and 8.37 µM
O=C(Nc1ccc2c(c1)CNC2)c1cc(Cl)cc2[nH]ncc12 | 72.5 µM and 58.7 µM and 89.7 µM | > 100 µM
C=CC[C@H](Nc1cccc(-c2nn[nH]n2)c1)c1cc(Cl)cc2[nH]ncc12 | 92 µM | 53.4 µM and 45 µM
Cc1c(C(=O)Nc2ccc([C@@H](C)N)cc2)cc(C2CC2)n1C | > 99.5 µM | > 100 µM
CNC(=O)[C@H](Nc1cccc(-c2nn[nH]n2)c1)c1cc(Cl)cc(NC(=O)OCc2ccccc2)c1 | 48.6 µM | 28.2 µM and 21.1 µM
CC[C@H](Cc1nnn[nH]1)c1ccc(NC(=O)c2cc(Cl)cc(-n3cccc3)c2)cc1 | 26.4 µM | 14.7 µM and 20.9 µM
O=C(O)CCCc1ccc(NC(=O)c2cc(Cl)cc(NC(=O)OCc3ccccc3)c2)cc1 | 43.3 µM | 27.3 µM and 21.1 µM
O=S(=O)(Nc1cccc(-c2nnn[nH]2)c1)c1cc(Cl)cc(-c2ccccc2)c1 | 35.8 µM | 16.4 µM and 28.4 µM
NCCc1ccc([C@H]2C[C@@H]2c2cc(Cl)cc(NC(=O)OCc3ccccc3)c2)cc1 | 7.22 µM and 8.69 µM | 58.9 µM and 31.6 µM
CNC(=O)[C@H](Nc1cccc(-c2nn[nH]n2)c1)c1cc(Cl)cc2[nH]ncc12 | > 99.5 µM | > 100 µM
NCc1ccc2nc(-c3cc(Cl)cc(NC(=O)OCc4ccccc4)c3)c(CCCO)cc2c1 | 89.3 µM | > 100 µM
Clc1cc(CCc2cccc(-c3nn[nH]n3)c2)c2cn[nH]c2c1 | > 99.5 µM | 99.1 µM
O=C(Nc1cc(Cl)cc(-c2ccc3[nH]c(C(=O)O)cc3c2)c1)OCc1ccccc1 | 6.65 µM and 5.47 µM | 5.48 µM and 4.93 µM
COC(=O)c1cc(Cl)cc([C@@H]2CN(Cc3ccccc3)C[C@H]2c2cccc(CN)c2)c1 | > 99.5 µM | > 100 µM
O=S(=O)(Nc1cccc(-c2nnn[nH]2)c1)c1cc(Cl)cc2c1OCC2 | > 99.5 µM | > 100 µM
O=C(Nc1ccc(-c2nnn[nH]2)cc1)c1cc(Cl)cc(C2CC2)c1 | 69.5 µM | 37.1 µM and 36 µM
CCNC(=O)Nc1cc(Cl)cc(C(=O)Nc2cc(C)cc(CN)c2)c1 | > 99.5 µM | > 100 µM

Structure (SMILES) | IC50 (Genome polyprotein [1]) | IC50 (Genome polyprotein [2])
O=C(Nc1cc(Cl)cc(S(=O)(=O)Nc2cccc(-c3nn[nH]n3)c2)c1)OCc1ccccc1 | 22.5 µM | 11.5 µM and 8.87 µM
NCc1cc(C(=O)O)cc([C@@H]2C[C@H]2c2cc(Cl)cc(NC(=O)OCc3ccccc3)c2)c1 | > 99.5 µM | > 100 µM
C[C@H](C(=O)O)c1cccc(NC(=O)c2cc(Cl)cc(NC(=O)OCc3ccccc3)c2)c1 | 58.7 µM | 24.7 µM and 27.2 µM
Cc1onc(C(=O)Nc2cccc(CN)c2)c1CN1CCCC1 | > 99.5 µM | > 100 µM
C=CC[C@H](Nc1cc(Cl)cc(NC(=O)OCc2ccccc2)c1)c1cccc(-c2nn[nH]n2)c1 | 7.41 µM and 7.43 µM and 7.49 µM and 7.65 µM | 6.73 µM and 4.97 µM and 5.55 µM and 5.77 µM and 4.21 µM and 4.15 µM
O=C(Nc1cc(Cl)cc([C@H]2C[C@@H]2c2cccc(C3CCNCC3)c2)c1)OCc1ccccc1 | 6.78 µM and 6.9 µM | 54.1 µM and 34.5 µM
O=S(=O)(Nc1cccc(-c2nnn[nH]2)c1)c1cc(Cl)cc(C(F)(F)F)c1 | > 99.5 µM | > 100 µM
CCNC(=O)Nc1cc(Cl)cc(C(=O)Nc2ccc3c(c2)CNCCO3)c1 | > 99.5 µM | > 100 µM
C=CC[C@H](Nc1cc(CN)ccn1)c1cc(Cl)cc(NC(=O)OCc2ccccc2)c1 | > 99.5 µM | > 100 µM
CNC(=O)[C@H](Nc1cccc(C(=O)O)c1)c1cc(Cl)cc2[nH]ncc12 | > 99.5 µM | > 100 µM
CC[C@H](Cc1nn[nH]n1)c1ccc(N[C@H](C(=O)NC)c2cc(Cl)cc(NC(=O)OCc3ccccc3)c2)cc1 | 29.2 µM | 15.4 µM and 25.1 µM
O=C(Nc1cc(Cl)cc([C@H](C#CCO)Nc2ccc(-c3nn[nH]n3)cc2)c1)OCc1ccccc1 | 12.2 µM | 8.13 µM and 6.72 µM
C#C[C@H](Nc1cccc(-c2nn[nH]n2)c1)c1cc(Cl)cc(NC(=O)OCc2ccccc2)c1 | 10.6 µM | 9.28 µM and 8.35 µM
Cc1c(C(=O)Nc2cc(F)cc(CN)c2)cc(C2CC2)n1C | > 99.5 µM | > 100 µM
Cc1c(C(=O)Nc2cccc(CN)c2)cc(C2CCC2)n1C | > 99.5 µM | > 100 µM
Cc1c(C(=O)Nc2ccc(CN)cc2)cc(C2CC2)n1C | > 99.5 µM | > 100 µM
CN1C[C@H](c2cccc(CN)c2)[C@@H](c2cc(Cl)cc(NC(=O)OCc3ccccc3)c2)C1 | > 99.5 µM | > 100 µM
O=C(Nc1cc(Cl)cc(C(=O)N[C@H]2CCCC[C@@H]2C(=O)O)c1)OCc1ccccc1 | > 99.5 µM | > 100 µM
Cc1c(C(=O)Nc2cc(CN)ccc2F)cc(C2CC2)n1C | > 99.5 µM | > 100 µM
CNC(=O)[C@H](Nc1cc(Cl)cc(NC(=O)OCc2ccccc2)c1)c1cccc(-c2nn[nH]n2)c1 | 45.9 µM and 44 µM | 22.2 µM and 18 µM
NCc1cccc([C@H](CCCO)Nc2cc(Cl)cc(NC(=O)OCc3ccccc3)c2)c1 | 85.8 µM | > 100 µM
O=C(Nc1cc(Cl)cc([C@H]2C[C@@H]2c2ccc3c(c2)CNC3)c1)OCc1ccccc1 | > 99.5 µM | > 100 µM

Structure (SMILES) | IC50 (Genome polyprotein [1]) | IC50 (Genome polyprotein [2])
CCNC(=O)Nc1cc(Cl)cc(C(=O)Nc2cc(CCCN)ccc2F)c1 | > 99.5 µM | > 100 µM
O=C(Nc1cc(Cl)cc(C(=O)Nc2cccc(C3(C(=O)O)CCC3)c2)c1)OCc1ccccc1 | 24.6 µM | 12.5 µM and 12.8 µM
O=C(Nc1cc(Cl)cc(C(=O)Nc2cc(-c3nnn[nH]3)ccc2F)c1)OCc1ccccc1 | 15.6 µM | 11 µM and 7.48 µM
CCc1cc(C(=O)Nc2cccc(-n3nn[nH]c3=O)c2)sc1-c1ccc(Cl)cc1 | 11.3 µM and 12.9 µM | 10.5 µM and 12.2 µM
N#C[C@H](Nc1ccc(-c2nn[nH]n2)cc1)c1cc(Cl)cc(NC(=O)OCc2ccccc2)c1 | 10.7 µM | 7.23 µM and 13 µM
NCc1ccc([C@H]2C[C@@H]2c2cc(Cl)cc(NC(=O)OCc3ccccc3)c2)cc1 | 9.84 µM and 11.1 µM | > 100 µM
CCNC(=O)Nc1cc(Cl)cc(C(=O)Nc2cccc(-n3nn[nH]c3=O)c2)c1 | > 99.5 µM | > 100 µM
O=C(O)CCCc1cccc(NC(=O)c2cc(Cl)cc(NC(=O)OCc3ccccc3)c2)c1 | 37.2 µM | 23.7 µM and 19.7 µM
C=CC[C@H](Nc1cccc(-c2nn[nH]n2)c1)c1cc(Cl)cc(NC(=O)OCc2ccccc2)c1 | 6.97 µM | 6.22 µM and 4.97 µM
O=C(Nc1cc(Cl)cc(C(=O)N[C@H](c2nn[nH]n2)C2CCNCC2)c1)OCc1ccccc1 | > 99.5 µM | > 100 µM
O=C(Nc1cc(Cl)cc(/C=C/c2cccc(-n3nn[nH]c3=O)c2)c1)OCc1ccccc1 | 8.63 µM and 8.5 µM | 11.5 µM and 8.65 µM
O=C(Nc1cc(Cl)cc(S(=O)(=O)Nc2cccc(-n3nn[nH]c3=O)c2)c1)OCc1ccccc1 | 34.3 µM | 16.1 µM and 14.1 µM
N#C[C@H](Nc1cccc(C(=O)O)c1)c1cc(Cl)cc2[nH]ncc12 | > 99.5 µM | > 100 µM
O=C(O)CCc1cccc(NC(=O)c2cc(Cl)cc(NC(=O)OCc3ccccc3)c2)c1 | 48.4 µM | 16.4 µM and 19.7 µM
O=C(Nc1cc(Cl)cc(C(=O)Nc2ccc3c(c2)C(=O)NC3)c1)OCc1ccccc1 | > 99.5 µM | > 100 µM
COC(=O)c1cc(Cl)cc(S(=O)(=O)Nc2cccc(-c3nnn[nH]3)c2)c1F | > 99.5 µM | > 100 µM
N#C[C@H](Nc1cc(Cl)cc(NC(=O)OCc2ccccc2)c1)c1ccc(-c2nn[nH]n2)cc1 | 9.45 µM | 6.86 µM and 5.66 µM
CNC(=O)C[C@H](Nc1cccc(F)n1)c1cc(Cl)cc(Br)c1 | > 99.5 µM | > 100 µM
COc1c(C(N)=O)cc(Cl)cc1S(=O)(=O)Nc1cccc(-c2nnn[nH]2)c1 | > 99.5 µM | > 100 µM
O=C(Nc1cc(Cl)cc(C(=O)Nc2ccc([C@@H]3C[C@H]3C(=O)O)cc2)c1)OCc1ccccc1 | 19.5 µM | 9.55 µM and 9.43 µM
